The text below walks through data of patent publication US5554357A, “Magnetic resonance imaging agents containing hydrazide moieties” (Mallinckrodt Medical, Inc., priority 1994, dated 1996).

Data set [1] relates to ICR mice. Put plainly: acute intravenous toxicity. The format is in vivo, mouse (ICR). Conditions: single intravenous injection via lateral tail vein, males and females, 7 days observation, 95% Confidence Limits 6.8-19.6 mmol/kg. The method, then: The acute intravenous toxicity of the compound of Example 1 was determined as follows: ICR mice, at 1 to 4 per dose level, received single intravenous injections of the test substance via a lateral tail vein at the rate of approximately 1 ml/minute. The test substances were at concentrations chosen to result in dose volumes of 5 to 75 ml/kg body weight. Dosing began at a volume of 10 ml/kg. Dose adjustments up or down were made to closely bracket the estimated LD50 with 4 animals per group (2 males and 2 females). Observations of the mice were recorded at times 0, 0.5, 1, 2, 4 and 24 hours and once daily thereafter for up to 7 days post injection. On the 7th day post injection, the mice were euthanized, weighed and necropsied. Abnormal tissues were noted. At this time a decision was made as to whether any histopathology was to be performed and whether or not the tissues should be retained. Necropsies were also performed on mice expiring after 24 hours post-injection, except for dead mice found on the weekends. The LD50 values, along with 95% CI were calculated using a modified Behrens-Reed-Meunch method.

Data set [2] can be described thus: T1 relaxivity by spin-echo NMR. The format is physicochemical. Conditions: 90 MHz, H2O/D2O (4:1), six concentrations from 20 mM down; least-square fit of 1/T1 versus concentration, correlation coefficient 0.9994. The method, then:
T1 relaxation times were measured using spin-echo sequence on the JEOL FX90Q (90 MHz) FT-NMR spectrometer/ Twenty millimolar solution of the complex in Example 1 was prepared in H2 O/D2 O (4:1) mixture and was serially diluted to lower concentrations ([…]) with H2 O/D2 O (4:1) mixture. T1 measurements were made at each of these 6 concentrations. The relaxivity (R1) was determined by applying least-square fit to the plot of 1/T1 versus concentration. The relaxivity of the complex in Example 1 was 4.85+0.06 mM^-1 sec^-1. The correlation coefficient for the least squares analysis was 0.9994.

Usually LD50 stands for the dose expected to kill half of the subjects tested. Low values mean greater toxicity, high ones lower toxicity. As to `CN(C)NC(=O)CN(CCN(CCN(CC(=O)[O-])CC(=O)NN(C)C)CC(=O)[O-])CC(=O)[O-].O.[Gd+3]` [Example 1], the LD50 in data set [1] is recorded as 11.5 mmol/kg. The “relaxivity (R1)” value in data set [2] turned out to be 4.85 ± 0.06 mM⁻¹ s⁻¹.
